For the assay, the target named is T1, human TRPC6 (Homo sapiens, UniProt Q9Y210).
T1 construct: expressed in transfected cells
T1 sequence (Q9Y210 1-931): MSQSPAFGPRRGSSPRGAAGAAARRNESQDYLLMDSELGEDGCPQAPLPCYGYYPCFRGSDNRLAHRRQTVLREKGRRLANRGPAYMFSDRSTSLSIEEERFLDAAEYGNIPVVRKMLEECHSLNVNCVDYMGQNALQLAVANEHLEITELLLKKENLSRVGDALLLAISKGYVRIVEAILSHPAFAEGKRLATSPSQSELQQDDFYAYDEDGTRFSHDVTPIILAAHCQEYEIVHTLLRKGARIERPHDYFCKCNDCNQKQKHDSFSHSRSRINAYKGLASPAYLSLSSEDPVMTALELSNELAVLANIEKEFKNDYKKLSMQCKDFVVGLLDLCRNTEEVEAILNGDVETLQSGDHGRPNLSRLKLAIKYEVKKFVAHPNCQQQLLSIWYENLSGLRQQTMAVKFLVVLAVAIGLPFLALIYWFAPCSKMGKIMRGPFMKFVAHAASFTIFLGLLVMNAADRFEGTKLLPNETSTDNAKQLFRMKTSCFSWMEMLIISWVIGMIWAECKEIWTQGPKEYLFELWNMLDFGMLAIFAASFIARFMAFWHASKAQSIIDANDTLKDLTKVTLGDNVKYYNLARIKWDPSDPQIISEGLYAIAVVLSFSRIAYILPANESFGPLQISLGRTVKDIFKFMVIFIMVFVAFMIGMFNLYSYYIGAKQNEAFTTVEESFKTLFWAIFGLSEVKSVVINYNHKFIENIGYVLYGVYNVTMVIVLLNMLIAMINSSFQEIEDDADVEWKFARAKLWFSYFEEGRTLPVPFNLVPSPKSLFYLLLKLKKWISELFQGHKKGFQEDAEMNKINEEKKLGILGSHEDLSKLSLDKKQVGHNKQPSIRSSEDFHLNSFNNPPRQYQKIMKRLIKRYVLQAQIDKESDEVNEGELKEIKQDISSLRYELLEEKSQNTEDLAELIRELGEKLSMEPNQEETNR
Briefly: High throughput screening assay: Fluo4/AM calcium fluorescence in HEK293/TREx cells expressing human TRPC6, agonist GSK1702934A (single concentration 10 μM and IC50 curves). In kind it is cell-based. The following applies: antagonist effect against human TRPC6, 7 concentrations 20 μM to 0.027 μM, triplicate. The procedure, abridged: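 HEK293/TREx cells stably carrying tetracycline-induced (1 μg/ml) human TRPC6, loaded with Fluo4/AM (0.5 μM, 60 min, RT), pretreated 2 min with compound (10 μM final in screen), then stimulated with GSK1702934A in high-Ca2+ Ringer's (20 mM Ca2+ final). Fluorescence ratio over ~3 min normalized to no-compound and control-blocker wells; IC50 from triplicate curves.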
For the molecule `COc1cc(C(=O)N2CCC(c3ccc(N)nn3)CC2)ncc1-c1cnc(OC(C)C)nc1` [Compound 53, [4-(6-Amino-pyridazin-3-yl)-piperidin-1-yl]-[5-(2-isopropoxy-pyrimidin-5-yl)-4-methoxy-pyridin-2-yl]-methanone], the concentration for half-maximal inhibition (IC50) turned out to be 3600 nM.
With `COc1cc(C(=O)N2CCN(c3cnc(N)cc3OC)CC2)ncc1-c1ccccc1` [Compound 105, 4-Methoxy-5-[4-(4-methoxy-5-phenylpyridine-2-carbonyl)piperazin-1-yl]pyridin-2-amine], the IC50 came to 32 nM.
Then `CCOc1ccc(-c2cnc(C(=O)N3CCC(c4ccc(N)nn4)CC3)cc2OC)cn1` [Compound 45, [4-(6-Amino-pyridazin-3-yl)-piperidin-1-yl]-(6′-ethoxy-4-methoxy-[3,3′]bipyridinyl-6-yl)-methanone], with 440 nM; and `COc1cc(C(=O)N2CCC(c3cnc(N)cc3OC)CC2)ncc1-c1ccc(C(F)(F)F)cc1` [Compound 84, (6-Amino-4-methoxy-3′,4′,5′,6′-tetrahydro-2′H-[3,4′]bipyridinyl-1′-yl)-[4-methoxy-5-(4-trifluoromethyl-phenyl)-pyridin-2-yl]-methanone], with 130 nM.
Regarding `COc1cc(C(=O)N2CCC(c3ccc(N)nn3)CC2)ncc1-c1ccc(OC(F)F)cc1` [Compound 39, [4-(6-Amino-pyridazin-3-yl)-piperidin-1-yl]-[5-(4-difluoromethoxy-phenyl)-4-methoxy-pyridin-2-yl]-methanone], the concentration for half-maximal inhibition (IC50) was found to be 320 nM.
